This note sets out measurements from paper PMC6697720, “Saturation of acyl chains converts cardiolipin from an antagonist to an activator of Toll-like receptor-4” (Cellular and Molecular Life Sciences: CMLS, 2019).

For test [1], the target named is T1, human TLR4/MD2/CD14 (Homo sapiens, UniProt O00206+Q9Y6Y9).
T1 construct: expressed in transfected cells; host or cells: HEK293 (ATCC CRL1573), transient transfection with jetPEI
In words: Inhibition of LPS-induced NF-κB luciferase reporter in HEK293 cells transfected with human TLR4/MD2/CD14. Format: cell-based. To be noted: for inhibition of LPS-induced signaling (LPS dose-response, 0 to 1000 ng/mL), mode of action: 1 h CL pre-incubation. Here is the method: (§1) Cells were seeded at 4 × 10^4 cells/mL in 96-well plates (200 μL/well) and transiently transfected 4 days later. Expression vectors containing an NF-κB transcription reporter vector-encoding firefly luciferase (10 ng/well pNF-κB-luc from Clontech), and a constitutively active reporter vector-encoding Renilla luciferase (5 ng/well phRG-TK; Promega), together with empty vector (pcDNA3.1 from Invitrogen Cat. N. V79020) and cDNA encoding human membrane CD14 (3 ng/well) and human or murine TLR4 and MD2 (3 ng/well) were mixed with jetPEI (Polyplus transfection Cat.N. 101-10N) and incubated with cells according to the manufacturer’s instructions.
(§2) After treatment supernatants were discarded, cells were washed with PBS and lysed with passive lysis buffer (Promega Cat.N. E1941). Luciferase and Renilla activity on cell lysates were quantified on a BioTek Synergy HT microplate reader using home-made luciferase reagent (20 mM Tricine, 2.67 mM MgSO4·7H2O, 0.265 mM (MgCO3)4Mg(OH)2·5H2O, 0.1 mM EDTA, 33.3 mM DTT, 530 μM ATP, 270 μM Acetyl Coenzyme A (Lithium salt), 470 μM luciferin (Biosynth), pH 7.8, diluted two times in water before use), or coelenterazine (Biosynth) dissolved in ethanol at 1 mg/mL and diluted 500 times in PBS before use as previously described. Firefly and Renilla luciferase activity on cell lysates were normalized, and data were expressed as fold induction as compared to unstimulated conditions.
In contrast to C16:0 and C18:0, C14:0 CL acted as an agonist in murine but not human cells (Fig. 3), a property similar to that of the LPS variant lipid IVa. to establish whether C14:0, like lipid IVa, is a weak human TLR4 antagonist, we tested the ability of all saturated CLs to inhibit signaling induced by LPS over a range of concentrations. For each CL, cells transfected with human TLR4/MD2/CD14 were pre-incubated with medium alone or two different CL concentrations for 1 h, and then washed and incubated for 6 h with increasing amounts of LPS (from 0 to 1000 ng/mL). […] The dose–response curve of LPS was shifted to the right.
(§3) Fig. 6 C14:0 is a competitive human TLR4 antagonist. HEK293 cells were transfected with plasmids encoding hTLR4, hMD2, and hCD14 together with a luciferase reporter plasmid dependent on NF-κB activation and a constitutively active reporter vector-encoding renilla luciferase. Two days after transfection, cells were incubated for 1 h with medium alone or the indicated amount of CLs, then washed and incubated 6 h with increasing amount of LPS. Luciferase and renilla were then quantified in cell lysate, and normalized and reported here as fold induction as compared to control. Each bar represents the mean ± standard deviation of three biological replicates (n = 3). Graphs are representative of at least three independent experiments
as §3, with “7 Unsaturated cardiolipins are” for “6 C14:0 is a”, “antagonists.” for “antagonist.”, “CLs, and” for “CLs,”
To quantify and compare the potency of CLs as inhibitors, we determined IC50 values in HEK293 cells transfected with human TLR4/MD2/CD14, for each of the antagonists (Fig. 8 and Table 1). […]

Test [2] has as its system RAW-Blue cells. The test is described as follows: NF-κB activation (SEAP, Quanti-Blue) by CL or LPS in RAW-Blue cells. In kind it is cell-based, murine. Particulars: CL alone, overnight. Here is the method: RAW-Blue™ cells were seeded the day before the experiment at 5 × 10^5 cells/mL in 48-well plates (500 μL/well).
These cells express a secreted embryonic alkaline phosphatase (SEAP) when NF-κB is activated. NF-κB activation was measured by measuring the alkaline phosphatase produced by RAW-Blue™ cells using the Quanti-Blue™ reagent (InvivoGen), according to the manufacturer’s instructions.
(§4) Fig. 3 Saturated but not unsaturated CLs have pro-inflammatory properties. a RAW-Blue™ cells were incubated overnight with the indicated amount of CL or LPS, supernatants were collected, and NF-κB activation quantified via Quanti-Blue™ test and reported here as fold induction as compared to control. Unpaired t test: differences with respect to the control (Ctrl) are not significant if p > 0.05 (no symbol); *p ≤ 0.0007. b Immortalized BMDM cells were incubated overnight with the indicated amount of CL or LPS; supernatants were collected and TNF-α quantified via ELISA assay. c, d Primary human monocytes were incubated overnight with the indicated amount of CL or LPS with or without the NLRP3 inhibitor MCC950, supernatants were collected, and TNF-α and IL-1β were quantified via ELISA assay. Graphs are representative of experiments from six different donors. Unpaired t test: differences with respect to the control (Ctrl) are not significant if p > 0.05 (no symbol); *p ≤ 0.021. Each bar represents the mean + standard deviation of three biological replicates (n = 3). Graphs are representative of at least three independent experiments

The subject of test [3] is immortalized BMDMs. In words: TNF-α secretion in immortalized BMDMs (WT or TLR4-KO) incubated with CL or LPS. In kind it is cell-based, murine. To be noted: CL alone, overnight, immortalized BMDM. On the procedure:
Immortalized BMDM were seeded the day before the experiment at 5 × 10^5 cells/mL in 48-well plates (500 μL/well).
After stimulation, supernatants were collected, centrifuged, and assayed for cytokine secretion, while cells were assayed for viability.
TNF-α and IP-10 were quantified in cell supernatants using DuoSet ELISA kits from R&D Systems and human IL-1β using Instant ELISA™ Kit from Invitrogen, according to the manufacturer’s instructions. Absorbance was read with a BioTek Synergy HT Microplate Readers.
as §4
(§5) Fig. 4 Saturated CLs are TLR4 agonists. a HEK293 cells were transfected with plasmids encoding murine TLR4, MD2, and CD14 (mTLR4), human TLR4, MD2, and CD14 (hTLR4) or with empty pcDNA3.1 plasmid, MD2 and CD14 (w/o TLR) together with a luciferase reporter plasmid dependent on NF-κB activation and a constitutively active reporter vector-encoding renilla luciferase. Two days after transfection, cells were incubated for 6 h with medium alone (Ctrl) or the indicated amount of CLs or LPS. Luciferase and renilla were quantified in cell lysate, normalized and reported here as fold induction as compared to control. Unpaired t test: differences compared to the control are not significant if p > 0.05(no symbol); *p ≤ 0.005. b WT and TLR4-KO iBMDM cells were incubated overnight with medium (c), LPS or C14:0 CL. For each condition, mTNF-α was measured by ELISA assay. Unpaired t test: differences with respect to the control are not significant if p > 0.05(no symbol); *p ≤ 0.0001. Each bar represents the mean + standard deviation of three biological replicates (n = 3). Graphs are representative of at least three independent experiments

The target of test [4] is T2, human TLR4, MD2, and CD14 (Homo sapiens, UniProt O00206+Q9Y6Y9).
T2 construct: expressed in transfected cells; host or cells: HEK293 (ATCC CRL1573), transient transfection with jetPEI
The test is described as follows: NF-κB luciferase reporter activation by CLs in HEK293 cells transfected with human TLR4, MD2 and CD14. Format: cell-based. Here is the method: as §1, §2
The first signaling event of these pathways is NF-κB activation through TLR4 activation. To investigate how the individual CD14, TLR4, and MD2 proteins contribute to the responses of cells to CL, we used the HEK transfection model where we can control which protein (including from different species) may be added to the cells and their contribution to CL activation of Nf-κB [21, 30, 31]. We transfected HEK293 cells with human or murine CD14 and MD2 with or without TLR4 and incubated them with saturated CLs for 6 h (Fig. 4a). All three saturated CLs activated murine TLR4. By contrast, only C16:0 and C18:0 activated the human receptor. To further confirm the role of TLR4, we compared TNF-α secretion induced by C14:0 CL in wild-type (WT) or TLR4 knock out (TLR4 KO) immortalized BMDMs. Both LPS and C14:0 CL induced TNF-α secretion in WT but not in TLR4-KO BMDMs (Fig. 4b). TLR4-KO BMDMs were normally responsive to TLR2 ligand Pam3CSK4 (data not shown).
as §5, with “Graphs are representative of at least three independent experiments” left out

The mark [5] stands for this setting: HEK293 hTLR4/hMD2/hCD14, 1 h CL, washed, 6 h LPS, Prism fit of Fig. 8 data.

T1 sequence (O00206 24-839): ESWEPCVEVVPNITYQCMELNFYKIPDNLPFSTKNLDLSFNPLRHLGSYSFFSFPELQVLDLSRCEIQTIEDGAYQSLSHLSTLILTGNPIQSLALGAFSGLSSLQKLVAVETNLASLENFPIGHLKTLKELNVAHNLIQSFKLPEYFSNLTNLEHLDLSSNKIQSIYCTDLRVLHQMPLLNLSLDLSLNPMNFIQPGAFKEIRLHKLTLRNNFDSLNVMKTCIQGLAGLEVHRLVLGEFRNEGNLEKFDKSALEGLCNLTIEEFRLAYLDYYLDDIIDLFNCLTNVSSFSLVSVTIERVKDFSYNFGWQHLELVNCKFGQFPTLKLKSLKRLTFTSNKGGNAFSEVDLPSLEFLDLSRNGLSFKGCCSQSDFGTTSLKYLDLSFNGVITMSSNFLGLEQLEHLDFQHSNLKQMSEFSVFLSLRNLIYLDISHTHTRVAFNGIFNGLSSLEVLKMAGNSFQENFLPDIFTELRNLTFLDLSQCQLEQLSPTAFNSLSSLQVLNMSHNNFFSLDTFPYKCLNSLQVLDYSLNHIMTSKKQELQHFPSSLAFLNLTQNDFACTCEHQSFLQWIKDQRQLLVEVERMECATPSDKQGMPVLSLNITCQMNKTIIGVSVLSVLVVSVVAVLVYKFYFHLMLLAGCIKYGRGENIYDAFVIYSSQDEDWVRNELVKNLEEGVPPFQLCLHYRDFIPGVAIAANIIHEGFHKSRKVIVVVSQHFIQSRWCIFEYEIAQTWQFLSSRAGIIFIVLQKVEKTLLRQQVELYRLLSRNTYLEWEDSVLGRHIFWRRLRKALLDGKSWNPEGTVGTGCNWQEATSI
T1 sequence (Q9Y6Y9 19-160): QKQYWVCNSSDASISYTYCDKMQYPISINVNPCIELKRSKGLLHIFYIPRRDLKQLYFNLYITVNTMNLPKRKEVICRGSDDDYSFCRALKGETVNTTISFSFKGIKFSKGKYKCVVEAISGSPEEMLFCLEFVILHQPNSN
T2 sequence (O00206 24-839): as the sequence (O00206 24-839) above
T2 sequence (Q9Y6Y9 19-160): as the sequence (Q9Y6Y9 19-160) above

By IC50 is commonly meant the midpoint of a concentration-inhibition curve. As for `CCCCCC/C=C\CCCCCCCC(=O)OC[C@H](COP(=O)(O)OCC(O)COP(=O)(O)OC[C@@H](COC(=O)CCCCCCC/C=C\CCCCCC)OC(=O)CCCCCCC/C=C\CCCCCC)OC(=O)CCCCCCC/C=C\CCCCCC` (stereo partly shown) [C16:1 CL], the “inhibition of LPS-induced signaling (LPS dose-response, 0 to 1000 ng/mL), mode of action” value (“inhibition of LPS-induced signaling” below) in test [1] (washed, 6 h LPS) is reported as “competitive TLR4 antagonists”. Also, the IC50 in test [1] (setting [5]) is 0.925 µM. Also, the NF-κB activation entry in test [2] is reported as “not”. The TNF-α secretion result in test [3] is on record as “not”.

`CCCCCCCC/C=C\CCCCCCCC(=O)OC[C@H](COP(=O)(O)OCC(O)COP(=O)(O)OC[C@@H](COC(=O)CCCCCCC/C=C\CCCCCCCC)OC(=O)CCCCCCC/C=C\CCCCCCCC)OC(=O)CCCCCCC/C=C\CCCCCCCC` (stereo partly shown) [C18:1 CL]: in test [1] (washed, 6 h LPS), the “inhibition of LPS-induced signaling” value is reported as “competitive TLR4 antagonists”. Besides, the IC50 in test [1] (setting [5]) was 33.5 µM. Also, the NF-κB activation entry in test [2] is listed as “not”. For the same compound, the TNF-α secretion entry in test [3] is given as “not”.

`CCCCCCCCCCCCCCCC(=O)OC[C@H](COP(=O)(O)OCC(O)COP(=O)(O)OC[C@@H](COC(=O)CCCCCCCCCCCCCCC)OC(=O)CCCCCCCCCCCCCCC)OC(=O)CCCCCCCCCCCCCCC` (stereo partly shown) [C16:0 CL]: in test [1] (washed, 6 h LPS), the “inhibition of LPS-induced signaling” value is reported as “did not inhibit”. For the same compound, in test [4] (6 h incubation), the “activation of human TLR4 (NF-κB)” value is “activated”. For the same compound, the “NF-κB induction in HEK293 cells transfected with TLR4 in the absence of CD14 or MD2” value in test [4] (hTLR4 without CD14 or without MD2, 6 h) was “not induced”. Further, in test [2], the NF-κB activation entry is listed as “induced”. Also, the TNF-α secretion entry in test [3] is “induced”.

In the case of `CCCC/C=C\CCCCCCCC(=O)OC[C@H](COP(=O)(O)OCC(O)COP(=O)(O)OC[C@@H](COC(=O)CCCCCCC/C=C\CCCC)OC(=O)CCCCCCC/C=C\CCCC)OC(=O)CCCCCCC/C=C\CCCC` (stereo partly shown) [C14:1 CL], the “inhibition of LPS-induced signaling” value in test [1] (washed, 6 h LPS) is “competitive TLR4 antagonists”. In addition, the IC50 in test [1] (setting [5]) stood at 0.0779 µM; in test [1] (HEK293 human TLR4/MD2/CD14) it was 0.077 µM. Besides, the “difference in potency between C14:1 and C18:1” value in test [1] (ratio of IC50 values, Table 1) turned out to be 400 fold. For the same compound, the NF-κB activation result in test [2] is recorded as “not”. Further, the TNF-α secretion result in test [3] is “not”.
